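Five compound concentrations were applied to cells in 96-well plates for 48 hours; endpoints were derived by simple linear interpolation of the resulting dose-response curve. GI50 = concentration required for 50% inhibition of growth. TGI: concentration producing complete growth inhibition.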
Columns and labels:
Assay in all cases: NCI-60 cell line screen, 48 h
SN12C renal = tested on: SN12C renal
RXF 393 renal = tested on: RXF 393 renal
LOX IMVI melanoma = tested on: LOX IMVI melanoma
SK-MEL-28 melanoma = tested on: SK-MEL-28 melanoma
UACC-257 melanoma = tested on: UACC-257 melanoma
HCT-15 colon = tested on: HCT-15 colon
BT-549 breast = tested on: BT-549 breast
MCF7 breast = tested on: MCF7 breast
UACC-62 melanoma = tested on: UACC-62 melanoma
SW-620 colon = tested on: SW-620 colon
EKVX NSCLC = tested on: EKVX NSCLC
MOLT-4 leukemia = tested on: MOLT-4 leukemia
PC-3 prostate = tested on: PC-3 prostate
OVCAR-8 ovarian = tested on: OVCAR-8 ovarian
HOP-92 NSCLC = tested on: HOP-92 NSCLC
UO-31 renal = tested on: UO-31 renal
A498 renal = tested on: A498 renal
HOP-62 NSCLC = tested on: HOP-62 NSCLC
A549 NSCLC = tested on: A549 NSCLC
RPMI-8226 leukemia = tested on: RPMI-8226 leukemia
SK-MEL-2 melanoma = tested on: SK-MEL-2 melanoma
HS 578T breast = tested on: HS 578T breast
HCC-2998 colon = tested on: HCC-2998 colon
NCI-H460 lung = tested on: NCI-H460 lung
MDA-MB-231 breast = tested on: MDA-MB-231 breast
T-47D breast = tested on: T-47D breast
SNB-75 CNS = tested on: SNB-75 CNS
OVCAR-4 ovarian = tested on: OVCAR-4 ovarian
NCI-H23 lung = tested on: NCI-H23 lung
K-562 leukemia = tested on: K-562 leukemia
SF-539 CNS = tested on: SF-539 CNS
MDA-MB-468 breast = tested on: MDA-MB-468 breast
786-0 renal = tested on: 786-0 renal
TK-10 renal = tested on: TK-10 renal
SF-295 CNS = tested on: SF-295 CNS
ACHN renal = tested on: ACHN renal
HCT-116 colon = tested on: HCT-116 colon
MDA-MB-435 = tested on: MDA-MB-435
NCI/ADR-RES ovarian = tested on: NCI/ADR-RES ovarian
DU-145 prostate = tested on: DU-145 prostate
NCI-H522 lung = tested on: NCI-H522 lung
CCRF-CEM leukemia = tested on: CCRF-CEM leukemia
HT29 colon = tested on: HT29 colon
IGROV1 ovarian = tested on: IGROV1 ovarian
SNB-19 CNS = tested on: SNB-19 CNS
SK-OV-3 ovarian = tested on: SK-OV-3 ovarian
M14 melanoma = tested on: M14 melanoma
MALME-3M melanoma = tested on: MALME-3M melanoma
SF-268 CNS = tested on: SF-268 CNS
SK-MEL-5 melanoma = tested on: SK-MEL-5 melanoma
CAKI-1 renal = tested on: CAKI-1 renal
U251 CNS = tested on: U251 CNS
OVCAR-3 ovarian = tested on: OVCAR-3 ovarian
KM12 colon = tested on: KM12 colon
HL-60(TB) leukemia = tested on: HL-60(TB) leukemia
OVCAR-5 ovarian = tested on: OVCAR-5 ovarian
NCI-H226 lung = tested on: NCI-H226 lung
COLO 205 colon = tested on: COLO 205 colon

Compound: CN(C)CCOc1ccc(C(=O)C2[C@H](c3ccc(Cl)cc3)[C@@H](c3ccccc3)NC23C(=O)Nc2ccc(Br)cc23)cc1 (stereo partly specified)
- GI50 (SN12C renal): 2.35 µM
- TGI (SN12C renal): 4.55 µM
- GI50 (RXF 393 renal): 1.65 µM
- TGI (RXF 393 renal): 3.61 µM
- GI50 (LOX IMVI melanoma): 2.42 µM
- TGI (LOX IMVI melanoma): 4.61 µM
- GI50 (SK-MEL-28 melanoma): 2.65 µM
- TGI (SK-MEL-28 melanoma): 4.88 µM
- GI50 (UACC-257 melanoma): 2.53 µM
- TGI (UACC-257 melanoma): 4.94 µM
- GI50 (HCT-15 colon): 2.6 µM
- TGI (HCT-15 colon): 4.95 µM
- GI50 (BT-549 breast): 3 µM
- TGI (BT-549 breast): 5.82 µM
- GI50 (MCF7 breast): 2.41 µM
- TGI (MCF7 breast): 5.05 µM
- GI50 (UACC-62 melanoma): 2.5 µM
- TGI (UACC-62 melanoma): 4.74 µM
- GI50 (SW-620 colon): 2.63 µM
- TGI (SW-620 colon): 5.17 µM
- GI50 (EKVX NSCLC): 2.24 µM
- TGI (EKVX NSCLC): 4.4 µM
- GI50 (MOLT-4 leukemia): 2.58 µM
- TGI (MOLT-4 leukemia): 6.53 µM
- GI50 (PC-3 prostate): 2.48 µM
- TGI (PC-3 prostate): 4.94 µM
- GI50 (OVCAR-8 ovarian): 2.58 µM
- TGI (OVCAR-8 ovarian): 5.01 µM
- GI50 (HOP-92 NSCLC): 1.74 µM
- TGI (HOP-92 NSCLC): 3.8 µM
- GI50 (UO-31 renal): 2.3 µM
- TGI (UO-31 renal): 4.63 µM
- GI50 (A498 renal): 2.53 µM
- TGI (A498 renal): 4.99 µM
- GI50 (HOP-62 NSCLC): 2.69 µM
- TGI (HOP-62 NSCLC): 5.56 µM
- GI50 (A549 NSCLC): 2.51 µM
- TGI (A549 NSCLC): 4.85 µM
- GI50 (RPMI-8226 leukemia): 3.33 µM
- TGI (RPMI-8226 leukemia): 8.37 µM
- GI50 (SK-MEL-2 melanoma): 2.68 µM
- TGI (SK-MEL-2 melanoma): 5.16 µM
- GI50 (HS 578T breast): 2.18 µM
- TGI (HS 578T breast): 6.88 µM
- GI50 (HCC-2998 colon): 2.22 µM
- TGI (HCC-2998 colon): 4.39 µM
- GI50 (NCI-H460 lung): 2.71 µM
- TGI (NCI-H460 lung): 5.22 µM
- GI50 (MDA-MB-231 breast): 2.41 µM
- TGI (MDA-MB-231 breast): 4.59 µM
- GI50 (T-47D breast): 2.33 µM
- TGI (T-47D breast): 5.18 µM
- GI50 (SNB-75 CNS): 1.7 µM
- TGI (SNB-75 CNS): 5.81 µM
- GI50 (OVCAR-4 ovarian): 2.47 µM
- TGI (OVCAR-4 ovarian): 4.91 µM
- GI50 (NCI-H23 lung): 2.62 µM
- TGI (NCI-H23 lung): 5.03 µM
- GI50 (K-562 leukemia): 2.73 µM
- TGI (K-562 leukemia): 9.03 µM
- GI50 (SF-539 CNS): 2.64 µM
- TGI (SF-539 CNS): 4.89 µM
- GI50 (MDA-MB-468 breast): 2.4 µM
- TGI (MDA-MB-468 breast): 4.68 µM
- GI50 (786-0 renal): 2.68 µM
- TGI (786-0 renal): 4.95 µM
- GI50 (TK-10 renal): 2.67 µM
- TGI (TK-10 renal): 5.61 µM
- GI50 (SF-295 CNS): 2.48 µM
- TGI (SF-295 CNS): 4.68 µM
- GI50 (ACHN renal): 2.55 µM
- TGI (ACHN renal): 4.77 µM
- GI50 (HCT-116 colon): 2.4 µM
- TGI (HCT-116 colon): 4.82 µM
- GI50 (MDA-MB-435): 2.59 µM
- TGI (MDA-MB-435): 4.84 µM
- GI50 (NCI/ADR-RES ovarian): 2.68 µM
- TGI (NCI/ADR-RES ovarian): 5.07 µM
- GI50 (DU-145 prostate): 2.7 µM
- TGI (DU-145 prostate): 5 µM
- GI50 (NCI-H522 lung): 2.87 µM
- TGI (NCI-H522 lung): 5.56 µM
- GI50 (CCRF-CEM leukemia): 3.09 µM
- TGI (CCRF-CEM leukemia): 7.86 µM
- GI50 (HT29 colon): 2.47 µM
- TGI (HT29 colon): 5.2 µM
- GI50 (IGROV1 ovarian): 2.51 µM
- TGI (IGROV1 ovarian): 4.79 µM
- GI50 (SNB-19 CNS): 2.63 µM
- TGI (SNB-19 CNS): 4.94 µM
- GI50 (SK-OV-3 ovarian): 4.39 µM
- TGI (SK-OV-3 ovarian): 16.3 µM
- GI50 (M14 melanoma): 2.89 µM
- TGI (M14 melanoma): 5.45 µM
- GI50 (MALME-3M melanoma): 2.43 µM
- TGI (MALME-3M melanoma): 4.81 µM
- GI50 (SF-268 CNS): 2.47 µM
- TGI (SF-268 CNS): 5.46 µM
- GI50 (SK-MEL-5 melanoma): 2.52 µM
- TGI (SK-MEL-5 melanoma): 4.71 µM
- GI50 (CAKI-1 renal): 2.38 µM
- TGI (CAKI-1 renal): 4.54 µM
- GI50 (U251 CNS): 2.59 µM
- TGI (U251 CNS): 4.96 µM
- GI50 (OVCAR-3 ovarian): 2.24 µM
- TGI (OVCAR-3 ovarian): 4.57 µM
- GI50 (KM12 colon): 2.8 µM
- TGI (KM12 colon): 5.46 µM
- GI50 (HL-60(TB) leukemia): 2.89 µM
- TGI (HL-60(TB) leukemia): 6.75 µM
- GI50 (OVCAR-5 ovarian): 2.23 µM
- TGI (OVCAR-5 ovarian): 4.34 µM
- GI50 (NCI-H226 lung): 2.65 µM
- TGI (NCI-H226 lung): 5.6 µM
- GI50 (COLO 205 colon): 2.75 µM
- TGI (COLO 205 colon): 5.37 µM
